Source: ChEMBL document CHEMBL1201862, “PubChem BioAssay data set” (2004)
The source made the active and inactive calls.

Experiments:
[1] = Counterscreen for inhibitors of Trypanosoma brucei methionyl tRNA synthetase (MetRS): Luminescence-based cell-based high throughput dose response assay to identify compounds that are cytotoxic to Jurkat human T lymphocyte cells.; assay type: functional
[2] = target: T1, Methionyl-tRNA synthetase, putative (Trypanosoma brucei brucei, UniProt Q38C91); assay type: functional, Trypanosoma brucei brucei strain 927/4 GUTat10.1
T1 sequence (Q38C91 whole entry): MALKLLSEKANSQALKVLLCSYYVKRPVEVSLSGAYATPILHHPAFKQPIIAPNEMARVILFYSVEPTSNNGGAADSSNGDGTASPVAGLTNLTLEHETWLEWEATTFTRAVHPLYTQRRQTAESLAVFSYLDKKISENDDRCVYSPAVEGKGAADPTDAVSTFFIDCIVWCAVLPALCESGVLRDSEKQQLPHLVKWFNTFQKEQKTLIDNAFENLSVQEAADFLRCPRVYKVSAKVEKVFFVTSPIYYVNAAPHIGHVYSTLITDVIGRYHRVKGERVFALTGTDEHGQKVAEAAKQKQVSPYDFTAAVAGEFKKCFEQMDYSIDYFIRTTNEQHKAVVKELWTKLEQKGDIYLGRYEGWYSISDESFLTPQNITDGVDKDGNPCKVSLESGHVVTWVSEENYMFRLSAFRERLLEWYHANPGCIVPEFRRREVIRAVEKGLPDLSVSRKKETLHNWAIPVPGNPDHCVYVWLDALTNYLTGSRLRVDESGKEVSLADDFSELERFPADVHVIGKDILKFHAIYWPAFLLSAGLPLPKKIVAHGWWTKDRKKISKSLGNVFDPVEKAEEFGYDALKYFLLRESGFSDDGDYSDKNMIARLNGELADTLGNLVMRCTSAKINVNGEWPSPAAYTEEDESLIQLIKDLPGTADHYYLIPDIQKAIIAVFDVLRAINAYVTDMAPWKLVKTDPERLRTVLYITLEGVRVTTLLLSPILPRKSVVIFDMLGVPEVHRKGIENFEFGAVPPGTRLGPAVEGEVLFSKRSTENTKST

[3] = target: T1, Methionyl-tRNA synthetase, putative; assay type: functional, Trypanosoma brucei brucei strain 927/4 GUTat10.1; remark: listed apart in the source
[4] = system: Vero; test: Vero cell toxicity, dose response, cytotoxicity control, plate reader, cherry-pick samples (AID 687020); assay type: functional, cell-based; details: Chlorocebus sabaeus
[5] = target: Protein S100-A4 (Homo sapiens, UniProt P26447); test: S100A4-myosin IIA binding inhibitor potency, dose response, biochemical, fluorescence polarization, cherry-picked hits (AID 687001); assay type: functional
Sequence of Protein S100-A4 (P26447 whole entry): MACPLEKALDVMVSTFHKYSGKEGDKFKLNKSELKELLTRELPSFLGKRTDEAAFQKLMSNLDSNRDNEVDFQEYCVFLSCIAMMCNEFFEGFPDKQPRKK

[6] = target: T2, Cytochrome P450 1A2 (Homo sapiens, UniProt P05177);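 also: PubChem cytochrome P450 panel assay, CYP1A2 panel member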
T2 sequence (P05177 whole entry): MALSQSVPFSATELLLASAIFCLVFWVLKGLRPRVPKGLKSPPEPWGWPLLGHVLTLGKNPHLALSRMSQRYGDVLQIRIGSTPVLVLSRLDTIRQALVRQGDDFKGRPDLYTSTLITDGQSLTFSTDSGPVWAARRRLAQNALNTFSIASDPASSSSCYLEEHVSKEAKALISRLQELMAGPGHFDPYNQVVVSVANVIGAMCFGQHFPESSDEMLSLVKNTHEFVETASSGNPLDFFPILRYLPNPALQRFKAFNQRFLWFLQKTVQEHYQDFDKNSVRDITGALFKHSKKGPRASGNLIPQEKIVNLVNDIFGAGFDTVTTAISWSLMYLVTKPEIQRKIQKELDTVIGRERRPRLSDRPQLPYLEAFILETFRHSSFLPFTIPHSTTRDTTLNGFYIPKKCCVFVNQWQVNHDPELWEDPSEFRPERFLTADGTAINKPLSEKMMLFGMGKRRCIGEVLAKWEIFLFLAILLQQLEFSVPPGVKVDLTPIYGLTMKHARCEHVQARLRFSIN

[7] = target: Paired box protein Pax-8 (Homo sapiens, UniProt Q06710); test: inhibitors of PAX8-driven TPO luciferase reporter, dose response, RMG-I cells, cherry-pick (AID 687027); assay type: functional, cell-based;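 also: luciferase reporter driven by Pax8 target thyroperoxidase promoter measured by SteadyGlo luminescence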
Sequence of Paired box protein Pax-8 (Q06710 whole entry): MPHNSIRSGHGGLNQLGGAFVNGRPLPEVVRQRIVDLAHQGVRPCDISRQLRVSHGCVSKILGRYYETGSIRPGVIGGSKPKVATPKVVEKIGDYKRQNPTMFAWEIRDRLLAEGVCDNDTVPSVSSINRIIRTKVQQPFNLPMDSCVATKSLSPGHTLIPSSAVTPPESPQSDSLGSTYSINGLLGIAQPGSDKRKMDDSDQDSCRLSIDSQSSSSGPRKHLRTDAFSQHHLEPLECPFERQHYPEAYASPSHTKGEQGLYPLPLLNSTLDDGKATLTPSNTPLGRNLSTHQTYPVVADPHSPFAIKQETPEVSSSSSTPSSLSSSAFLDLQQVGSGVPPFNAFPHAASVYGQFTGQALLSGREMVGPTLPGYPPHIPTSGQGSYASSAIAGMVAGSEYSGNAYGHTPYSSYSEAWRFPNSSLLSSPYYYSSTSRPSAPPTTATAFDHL

[8] = Luminescence-based cell-based high throughput dose response assay to identify activators of the DAF-12 from the parasite S. stercoralis (ssDAF-12).; assay type: functional
[9] = target: T3, Sentrin-specific protease 1 (Homo sapiens, UniProt Q9P0U3); test: Dose response confirmation of small molecule inhibitors of the catalytic domain of the SUMO protease, SENP1 in a FRET assay.; assay type: functional; details: read-out: IC50_Mean
T3 sequence (Q9P0U3 whole entry, the tested form may be a part): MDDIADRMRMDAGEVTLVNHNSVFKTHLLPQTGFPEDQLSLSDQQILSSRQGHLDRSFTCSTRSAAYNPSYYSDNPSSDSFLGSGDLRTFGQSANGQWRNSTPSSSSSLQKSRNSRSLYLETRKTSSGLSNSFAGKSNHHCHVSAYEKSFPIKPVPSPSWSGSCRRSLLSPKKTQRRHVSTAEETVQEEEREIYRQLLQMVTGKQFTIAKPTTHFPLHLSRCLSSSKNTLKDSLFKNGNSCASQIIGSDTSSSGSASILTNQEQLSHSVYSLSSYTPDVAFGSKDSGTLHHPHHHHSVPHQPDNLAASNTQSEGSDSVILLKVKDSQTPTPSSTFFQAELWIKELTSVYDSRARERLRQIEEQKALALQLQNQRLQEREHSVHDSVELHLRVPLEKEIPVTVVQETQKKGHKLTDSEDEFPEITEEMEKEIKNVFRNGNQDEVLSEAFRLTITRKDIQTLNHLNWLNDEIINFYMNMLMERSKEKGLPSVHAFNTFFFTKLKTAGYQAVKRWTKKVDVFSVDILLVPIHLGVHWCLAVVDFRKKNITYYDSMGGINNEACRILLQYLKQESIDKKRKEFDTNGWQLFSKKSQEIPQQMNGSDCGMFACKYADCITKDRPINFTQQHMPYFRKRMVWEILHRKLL

[10] = target: T3, Sentrin-specific protease 1; test: potency of human SENP1 inhibitors, dose response, biochemical, kinetic FRET (AID 651697); assay type: functional; details: read-out: IC50_Mean
[11] = cells; assay type: functional
[12] = target: Beta-lactamase (Salmonella choleraesuis (strain SC-B67), UniProt Q5J463)
Sequence of Beta-lactamase (Salmonella choleraesuis (strain SC-B67), UniProt Q5J463) (Q5J463 whole entry): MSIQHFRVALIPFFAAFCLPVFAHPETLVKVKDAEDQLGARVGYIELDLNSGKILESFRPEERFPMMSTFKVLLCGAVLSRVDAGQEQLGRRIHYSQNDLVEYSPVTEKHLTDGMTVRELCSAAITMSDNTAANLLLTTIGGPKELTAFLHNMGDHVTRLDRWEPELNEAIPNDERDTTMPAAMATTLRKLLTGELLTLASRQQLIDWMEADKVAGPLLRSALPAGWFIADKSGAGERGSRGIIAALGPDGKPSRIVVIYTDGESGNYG

[13] = THP-1 cell cytotoxicity, dose response, cytotoxicity control for non-replicating M. tuberculosis project (AID 489025); assay type: functional
[14] = target: Beta-lactamase (Pseudomonas aeruginosa, UniProt Q79MP6);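 also: biochemical dose-response test of metallo-beta-lactamase enzyme inhibition, read out by epi-absorbance; purified recombinant IMP-1 metallo-beta-lactamase with nitrocefin as substrate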
Sequence of Beta-lactamase (Pseudomonas aeruginosa, UniProt Q79MP6) (Q79MP6 whole entry): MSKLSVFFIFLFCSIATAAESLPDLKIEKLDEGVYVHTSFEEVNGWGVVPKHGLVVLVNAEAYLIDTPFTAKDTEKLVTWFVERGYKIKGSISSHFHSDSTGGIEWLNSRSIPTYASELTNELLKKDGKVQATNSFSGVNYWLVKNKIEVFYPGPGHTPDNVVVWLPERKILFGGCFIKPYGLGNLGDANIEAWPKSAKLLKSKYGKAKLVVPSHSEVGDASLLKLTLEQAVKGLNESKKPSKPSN

[15] = target: T4, Sentrin-specific protease 8 (Homo sapiens, UniProt Q96LD8); assay type: functional
T4 sequence (Q96LD8 whole entry): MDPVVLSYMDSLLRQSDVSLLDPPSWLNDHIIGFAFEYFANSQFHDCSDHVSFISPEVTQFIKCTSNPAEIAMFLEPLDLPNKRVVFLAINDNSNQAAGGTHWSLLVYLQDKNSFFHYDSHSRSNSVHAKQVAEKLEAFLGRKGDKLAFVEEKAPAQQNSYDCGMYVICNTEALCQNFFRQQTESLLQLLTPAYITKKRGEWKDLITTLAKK

[16] = target: T4, Sentrin-specific protease 8; assay type: functional; remark: listed apart in the source
[17] = target: T5, Caspase-3 (Homo sapiens, UniProt P42574); test: Dose-response confirmation of uHTS inhibitor hits of Sentrin-Specific Protease 8 in a Caspase-3 Fluorescence assay.; assay type: functional
T5 sequence (P42574 whole entry): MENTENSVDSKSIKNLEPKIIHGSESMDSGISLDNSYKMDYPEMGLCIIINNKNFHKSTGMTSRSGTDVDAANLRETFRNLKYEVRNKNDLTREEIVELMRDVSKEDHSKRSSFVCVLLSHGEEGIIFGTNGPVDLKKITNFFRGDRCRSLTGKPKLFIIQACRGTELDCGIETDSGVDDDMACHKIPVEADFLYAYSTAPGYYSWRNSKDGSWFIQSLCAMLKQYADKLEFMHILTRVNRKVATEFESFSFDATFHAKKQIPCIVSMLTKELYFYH

[18] = target: T6, Low molecular weight phosphotyrosine protein phosphatase (Homo sapiens, UniProt P24666); assay type: functional; details: read-out: IC50_Mean
T6 sequence (P24666 whole entry): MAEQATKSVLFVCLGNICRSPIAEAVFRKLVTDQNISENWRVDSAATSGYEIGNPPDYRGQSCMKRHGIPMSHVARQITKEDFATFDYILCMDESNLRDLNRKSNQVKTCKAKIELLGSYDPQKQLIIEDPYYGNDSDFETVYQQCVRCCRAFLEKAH

[19] = target: T6, Low molecular weight phosphotyrosine protein phosphatase; assay type: functional; details: read-out: IC50_Mean; remark: listed apart in the source
[20] = system: HEK293; test: HEK293T cell cytotoxicity, dose response, cytotoxicity control, ATP luminescence, cherry-pick samples (AID 687005); assay type: functional, cell-based; details: Homo sapiens;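 also: cells exposed to compound for 48 hours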
[21] = HEK293 Cytotoxicity Assay Measured in Cell-Based System Using Plate Reader - 7071-01_Inhibitor_Dose_CherryPick_Activity_Set2.; assay type: functional
[22] = system: Cryptococcus neoformans; test: PubChem AID 686997; assay type: functional, organism-based
[23] = DNA binding of candidate compounds, dose response, artefact control for RAD54 inhibitor project, biochemical, fluorescence polarization, cherry-pick (AID 651673); assay type: functional
[24] = target: T7, DNA repair protein RAD52 homolog (Homo sapiens, UniProt P43351); assay type: functional, biochemical
T7 sequence (P43351 whole entry): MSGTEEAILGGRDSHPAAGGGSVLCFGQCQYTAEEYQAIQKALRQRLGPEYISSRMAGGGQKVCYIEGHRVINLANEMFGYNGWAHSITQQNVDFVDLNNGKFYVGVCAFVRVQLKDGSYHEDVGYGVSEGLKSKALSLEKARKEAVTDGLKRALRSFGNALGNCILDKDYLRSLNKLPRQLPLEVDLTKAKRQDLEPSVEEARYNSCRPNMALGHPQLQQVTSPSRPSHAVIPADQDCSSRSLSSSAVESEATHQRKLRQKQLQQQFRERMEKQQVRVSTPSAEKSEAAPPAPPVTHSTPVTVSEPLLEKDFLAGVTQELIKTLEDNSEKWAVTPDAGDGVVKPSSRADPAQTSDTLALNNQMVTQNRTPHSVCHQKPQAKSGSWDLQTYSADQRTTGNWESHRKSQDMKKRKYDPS

[25] = target: T8, DNA repair and recombination protein RAD54-like (Homo sapiens, UniProt Q92698); test: inhibitors of human RAD54 branch migration, confirmation, biochemical, fluorescence, cherry-picked samples, dose series (AID 651657); assay type: functional
T8 sequence (Q92698 whole entry): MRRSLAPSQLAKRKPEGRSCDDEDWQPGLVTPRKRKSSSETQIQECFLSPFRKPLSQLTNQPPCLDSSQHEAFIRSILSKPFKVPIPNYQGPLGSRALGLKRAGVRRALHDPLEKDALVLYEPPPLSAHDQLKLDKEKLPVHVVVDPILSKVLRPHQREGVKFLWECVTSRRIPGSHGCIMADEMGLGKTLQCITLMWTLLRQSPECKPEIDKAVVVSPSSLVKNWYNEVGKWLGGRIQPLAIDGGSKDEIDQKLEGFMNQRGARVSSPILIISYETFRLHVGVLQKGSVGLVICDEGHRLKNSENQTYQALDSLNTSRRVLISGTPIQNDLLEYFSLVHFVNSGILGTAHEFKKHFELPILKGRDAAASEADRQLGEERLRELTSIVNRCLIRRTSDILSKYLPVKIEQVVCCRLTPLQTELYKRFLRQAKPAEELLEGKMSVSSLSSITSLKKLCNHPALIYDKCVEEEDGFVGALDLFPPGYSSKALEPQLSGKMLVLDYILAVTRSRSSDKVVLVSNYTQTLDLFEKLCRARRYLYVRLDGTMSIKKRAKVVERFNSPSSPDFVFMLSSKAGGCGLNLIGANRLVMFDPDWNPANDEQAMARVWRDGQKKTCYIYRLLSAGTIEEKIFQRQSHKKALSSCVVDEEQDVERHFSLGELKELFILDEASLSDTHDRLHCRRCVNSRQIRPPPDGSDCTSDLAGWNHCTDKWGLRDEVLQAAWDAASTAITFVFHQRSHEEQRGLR

[26] = Luminescence Cell-Based Dose Response HTS to Identify Inhibitors of 5'UTR Stem-Loop Driven Prion Protein mRNA Translation in H4 Neuroglioblastoma Cells. [Related pubchem assays: 1827 (Project Summary), 1813 (Primary HTS)]; assay type: functional
[27] = cytotoxicity toward DRD oncogenic fibroblasts, dose response, cell-based, non-viral oncogenic, luminescence (AID 1934); assay type: functional; details: Homo sapiens
[28] = inhibitors of firefly luciferase expression or activity, dose response, H4 neuroglioma cells, luminescence (AID 1990); assay type: functional, cell-based
[29] = inhibitors of SNCA 5'UTR-driven reporter translation, confirmation, H4 neuroglioma cells, luminescence (AID 1988); assay type: functional, cell-based
[30] = system: BJ; test: cytotoxicity toward Ras-transformed BJeLR fibroblasts, dose response, cell-based, alamar blue fluorescence, cherrypicked samples (AID 2631); assay type: functional; details: Homo sapiens;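 also: confirmatory dose-response assay in RAS-dependent BJ fibroblasts engineered with TERT, LT and ST, with cytotoxicity read by fluorescence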
[31] = target: Beta Lactamase (Pseudomonas aeruginosa, UniProt Q932Y6); test: beta-lactamase reporter inhibitor potency, dose response, artefact control for NOD2-RIPK2 interaction inhibitor project, BLA reporter cells, FRET fluorescence (AID 651552); assay type: functional, cell-based
Sequence of Beta Lactamase (Q932Y6 whole entry): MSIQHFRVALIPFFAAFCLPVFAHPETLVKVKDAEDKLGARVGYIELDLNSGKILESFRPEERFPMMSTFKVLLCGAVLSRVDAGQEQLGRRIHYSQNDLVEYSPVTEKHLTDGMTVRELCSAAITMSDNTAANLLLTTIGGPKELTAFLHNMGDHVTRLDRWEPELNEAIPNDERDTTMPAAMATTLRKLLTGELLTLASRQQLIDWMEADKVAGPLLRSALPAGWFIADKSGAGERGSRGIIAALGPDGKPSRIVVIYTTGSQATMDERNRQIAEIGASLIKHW

[32] = target: T9, Heat shock factor protein 1 (Mus musculus, UniProt P38532); test: HSF1 potentiators in luciferase reporter cells, confirmation, cell-based, NIH3T3, luminescence, dose retest (AID 435004); assay type: functional;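 also: stress induced by proteasome inhibitor MG132 added 30 min after compound; luciferase reporter driven by HSF1 response element in NIH3T3 cells; actives raise luminescence as potentiators of the MG132 stress response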
T9 sequence (P38532 whole entry): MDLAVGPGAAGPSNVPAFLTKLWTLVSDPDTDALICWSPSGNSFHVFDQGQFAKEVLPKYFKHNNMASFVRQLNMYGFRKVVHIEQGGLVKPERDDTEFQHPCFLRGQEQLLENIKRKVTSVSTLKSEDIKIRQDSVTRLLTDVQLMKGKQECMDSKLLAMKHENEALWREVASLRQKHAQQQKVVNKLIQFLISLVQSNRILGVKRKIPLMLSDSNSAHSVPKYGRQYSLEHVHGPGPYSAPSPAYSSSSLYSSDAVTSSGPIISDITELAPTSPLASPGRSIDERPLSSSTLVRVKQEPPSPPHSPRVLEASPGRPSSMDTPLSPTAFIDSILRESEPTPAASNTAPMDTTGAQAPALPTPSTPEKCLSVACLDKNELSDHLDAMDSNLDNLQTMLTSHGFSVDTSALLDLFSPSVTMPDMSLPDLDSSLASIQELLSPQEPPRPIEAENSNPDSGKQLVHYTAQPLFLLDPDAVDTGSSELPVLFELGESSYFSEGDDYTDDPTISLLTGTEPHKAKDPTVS

[33] = system: BJ; test: cytotoxicity toward BJ-TERT-LT-ST fibroblasts, dose response, cell-based, RAS-independent, luminescence (AID 1935); assay type: functional; details: Homo sapiens;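 also: BJ fibroblasts immortalized with TERT plus LT and ST oncogenes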
[34] = Fluorescence-based cell-based high throughput dose response assay for inhibitors of the interaction of nucleotide-binding oligomerization domain containing 2 (NOD2) and the receptor-interacting serine-threonine kinase 2 (RIPK2).; assay type: functional; details: Homo sapiens
[35] = system: BJ; test: cells; assay type: functional, cell-based; details: Homo sapiens
[36] = system: BJ; test: cytotoxicity toward BJ-TERT fibroblasts, dose response, cell-based, RAS-independent, luminescence (AID 1933); assay type: functional; details: Homo sapiens

Cc1cc(C)c(O)c(-c2cc(C(=O)NCCc3ccc(S(N)(=O)=O)cc3)[nH]n2)c1
IC50 [1]: 83.3 µM (inactive)
IC50 [2]: 70.9 µM (inactive)
IC50 [3]: 39.5 µM (inactive)

COc1cc(C)ccc1OCc1cc(C(=O)NCCN2CCCC(O)C2)no1 (configuration not stated)
AC50 [4]: 30 µM (active)

CC(=O)[C@@]1(O)Cc2c(O)c3c(c(O)c2[C@H](O[C@H]2C[C@H](N)[C@H](O)[C@H](C)O2)C1)C(=O)c1ccccc1C3=O
AC50 [5]: 0.412 µM (active)
AC50 [6]: 20 µM (inconclusive)
AC50 [7]: 3.77 µM (active)
IC50 [8]: > 67.5 µM (inactive)

O=C(Nc1nccs1)c1cc2cc(Cl)ccc2oc1=O
IC50 [9]: 3.49 µM (active)
IC50 [10]: 1.84 µM (active)
IC50 [11]: 1.37 µM (active)

N=C1/C(=C\c2coc3ccccc3c2=O)C(=O)N=C2SC=CN12
IC50 [12]: > 59.6 µM (inactive)
CC50 [13]: > 40 µM (active)
IC50 [14]: 36.4 µM (inactive)

COc1ccc(NC(=O)[C@@H]2[C@@H]3C(=O)N(C4CCCCC4)C(=O)[C@@H]3C3c4ccccc4C=CN32)cc1 (some centres not stated)
IC50 [15]: 16.3 µM (active)
IC50 [16]: 4.79 µM (active)
IC50 [17]: 10.8 µM (active)

COCCNc1nc(NCc2cnc(C)cn2)c2sccc2n1
IC50 [18]: 13.5 µM (active)
IC50 [19]: 20.4 µM (inactive)

COC(=O)C1=C(C)N(Cc2ccc(F)cc2)C(=S)NC1c1cccc(Br)c1 (configuration not stated)
AC50 [20]: 6.17 µM (active)
AC50 [21]: 6.17 µM (active)
AC50 [22]: 36.7 µM (active)

c1cncc(Nc2c3ccccc3nc3ccccc23)c1
AC50 [23]: 49.5 µM (active)
AC50 [24]: 7.23 µM (active)
AC50 [25]: 12.8 µM (active)

COc1ccc(/N=C2\S/C(=C\c3ccc(Cl)c([N+](=O)[O-])c3)C(=O)N2CCN(C)C)cc1
EC50 [26]: 8.46 µM (active)
EC50 [27]: 2.8 µM (inconclusive)
EC50 [28]: > 120 µM (not active)
EC50 [29]: 8.97 µM (active)
EC50 [30]: 1.16 µM (active)
IC50 [31]: 49.7 µM (inactive)
EC50 [32]: 7.54 µM (active)
EC50 [33]: 3.03 µM (inconclusive)
IC50 [34]: 1.5 µM (active)
EC50 [35]: 9.3 µM (inconclusive)
AC50 [24]: 10.8 µM (active)
EC50 [36]: 3.18 µM (inconclusive)
